The results in this text go back to patent publication US10538497B2, “Compounds as indoleamine 2,3-dioxygenase inhibitors” (Merck Sharp & Dohme Corp., priority 2015, dated 2020).

The target of assay [1] is T1, IDO1 (Homo sapiens (Human), UniProt P14902). The assay is described as follows: IDO1 Enzyme Assay. Particulars: read-out: IDO1 Enzyme Assay, IC50; HIS-tagged recombinant IDO1, 40 nM.
Assay [2] addresses T1, IDO1. The assay is described as follows: IDO1 Cellular Assay in Frozen HEK293 Cells Transiently Transfected with Human IDO1. Format: cell-based. Particulars: HEK293 cells transiently transfected with human IDO1; read-out: IDO1 HEK293 Cell Assay, IC50.
Assay [3] deals with T1, IDO1. The assay is described as follows: IDO1 Cellular Assay in Hela Cells Stimulated with IFNγ. The settings on record: Hela cells stimulated with IFNγ 100 ng/mL; read-out: IDO1 HELA Cell Assay, IC50. Format: cell-based.

T1 sequence (P14902 whole entry): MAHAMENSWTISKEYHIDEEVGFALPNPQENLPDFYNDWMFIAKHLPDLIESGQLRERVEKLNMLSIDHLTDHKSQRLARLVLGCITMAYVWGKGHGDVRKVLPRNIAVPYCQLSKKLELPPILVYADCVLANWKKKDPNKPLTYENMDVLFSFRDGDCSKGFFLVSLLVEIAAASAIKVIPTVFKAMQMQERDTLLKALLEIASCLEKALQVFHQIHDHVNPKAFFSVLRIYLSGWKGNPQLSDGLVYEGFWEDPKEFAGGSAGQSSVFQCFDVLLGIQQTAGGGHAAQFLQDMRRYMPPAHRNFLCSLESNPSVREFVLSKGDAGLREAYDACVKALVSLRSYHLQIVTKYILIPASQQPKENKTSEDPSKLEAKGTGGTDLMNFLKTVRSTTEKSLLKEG

For the molecule `O=C(CSc1nonc1/C(=N/O)Nc1ccc(F)c(Br)c1)NC[C@@H](O)CO` [Example 42, (R)-2-((4-(N-(3-bromo-4-fluorophenyl)-N′-hydroxycarbamimidoyl)-1,2,5-oxadiazol-3-yl)thio)-N-(2,3-dihydroxypropyl)acetamide], the figures for the half-maximal inhibitory concentration (IC50) at IDO1 [1], at IDO1 [2] and on IDO1 [3] were 47.7 nM, 59.6 nM and 34.3 nM, respectively.

As to `NC(=O)NCCSc1nonc1/C(=N/O)Nc1ccc(F)c(Br)c1` [Example 46, N-(3-Bromo-4-fluorophenyl)-N′-hydroxy-4-((2-ureidoethyl)thio)-1,2,5-oxadiazole-3-carboximidamide], the IC50 on IDO1 [1] turned out to be 33.9 nM; at IDO1 [2] it was 16.9 nM; at IDO1 [3] it was 13.5 nM.
